# Assay results published in patent US10479782B2, “Forms of lumacaftor and processes for the preparation thereof” (Mylan Laboratories LImited, priority 2015, dated 2019).
# How the values were obtained:
# [1] = Storage stability, chemical (purity by HPLC analysis); format: physicochemical
# Method: Thus, in addition to PXRD analyses, HPLC analyses were also performed. HPLC separations may be performed on an HPLC column and detector system, such as an Kromasil 100 C18 column (150×4.6 mm, 3.5 μm) or its equivalent using a UV detector set at 220 nm with a column oven temperature of about 30° C. A flow rate of 1.0 mL/min with an injection volume of 10 μL may be used, with a run time of approximately 35 minutes.
# […] The samples were tested for stability by PXRD analysis and for purity by HPLC analysis.
# (§1) As an example, Table 1 below provides data collected on amorphous lumacaftor.
# (§2) As another example, Table 2 below provides data collected on crystalline lumacaftor ethyl acetate solvate and the crystalline lumacaftor acetic acid solvate.
# [2] = Storage stability, physical (PXRD analysis); format: physicochemical
# Method: Amorphous lumacaftor as prepared by methods herein may be characterized as amorphous by powder X-ray diffraction (PXRD). Thus, samples of amorphous lumacaftor were analyzed by X-ray diffraction on a BRUKER D-8 Discover powder diffractometer equipped with a goniometer of θ/2θ configuration and Lynx Eye detector. The Cu-anode X-ray tube was operated at 40 kV and 30 mA. The experiments were conducted over the […] of 2.0°-50.0°, 0.030° step size, and 0.4 seconds step time.
# Another aspect of the present invention provides a crystalline lumacaftor acetic acid solvate. The crystalline lumacaftor acetic acid solvate prepared by methods disclosed herein may be characterized by PXRD. Thus, PXRD analyses of the crystalline lumacaftor acetic acid solvate were carried out on a PANalytical, X'Pert PRO powder diffractometer equipped with goniometer of θ/θ configuration and X'Celerator detector. The Cu-anode X-ray tube was operated at 40 kV and 30 mA. The experiments were conducted over the 2θ range of 2.0°-50.0°, 0.030° step size, and 50 seconds step time.
# The lumacaftor ethyl acetate solvate prepared by methods disclosed herein may be characterized by PXRD. Thus, PXRD analyses of the lumacaftor ethyl acetate solvate were carried out on a PANalytical, X'Pert PRO powder diffractometer equipped with goniometer of θ/θ configuration and X'Celerator detector. The Cu-anode X-ray tube is operated at 40 kV and 30 mA. The experiments were conducted over the 2θ range of 2.0°-50.0°, 0.0300 step size, and 50 seconds step time.
# The physical and chemical stabilities of the crystalline lumacaftor acetic acid solvate and the crystalline lumacaftor ethyl acetate solvate were determined by storing samples of each at 40° C./75% relative humidity (RH) and at 25° C./60% RH for six months. The samples were tested for stability by PXRD analysis and for purity by HPLC analysis.
# as §1, §2
# [3] = storage at 25° C./60% RH, 1 months
# [4] = storage at 25° C./60% RH, 2 months
# [5] = storage at 25° C./60% RH, 3 months
# [6] = storage at 25° C./60% RH, 15 days
# [7] = storage at 25° C./60% RH, Initial
# [8] = stored for 3 months at 5±3° C. and 25° C./60% relative humidity (RH)
# [9] = storage at 25° C./60% RH, 6 months
# [10] = storage at 40° C./75% RH, 1 months
# [11] = storage at 40° C./75% RH, 2 months
# [12] = storage at 40° C./75% RH, 3 months
# [13] = storage at 40° C./75% RH, 6 months
# [14] = storage at 40° C./75% RH, 15 days
# [15] = storage at 40° C./75% RH, Initial
# [16] = stored for 6 months at 25° C./60% and 40° C./75% relative humidity (RH)
Structure (SMILES),"HPLC Purity (%) [1, 3] [%]","HPLC Purity (%) [1, 4] [%]","HPLC Purity (%) [1, 5] [%]","HPLC Purity (%) [1, 6] [%]","HPLC Purity (%) [1, 7] [%]","PXRD [2, 3]","PXRD [2, 4]","PXRD [2, 5]","PXRD [2, 6]","PXRD [2, 7]","HPLC Purity (%) [1, 9] [%]","HPLC Purity (%) [1, 10] [%]","HPLC Purity (%) [1, 11] [%]","HPLC Purity (%) [1, 12] [%]","HPLC Purity (%) [1, 13] [%]","HPLC Purity (%) [1, 14] [%]","HPLC Purity (%) [1, 15] [%]","chemical degradation on storage [1, 16]","PXRD [2, 9]","PXRD [2, 10]",other results
"Cc1ccc(NC(=O)C2(c3ccc4c(c3)OC(F)(F)O4)CC2)nc1-c1cccc(C(=O)O)c1 [Amorphous lumacaftor, 3-(6-(1-(2,2-difluorobenzo[d][1,3]dioxol-5-yl)cyclopropanecarboxamido)-3-methylpyridin-2-yl)benzoic acid]",99.63,99.60,99.65,99.67,99.65,Stable,Stable,Stable,Stable,Amorphous,,,,,,,,,,,"HPLC Purity (%) ([1]; storage at 5 ± 3° C., 1 months): 99.61%; HPLC Purity (%) ([1]; storage at 5 ± 3° C., 2 months): 99.63%; HPLC Purity (%) ([1]; storage at 5 ± 3° C., 3 months): 99.64%; HPLC Purity (%) ([1]; storage at 5 ± 3° C., 15 days): 99.67%; HPLC Purity (%) ([1]; storage at 5 ± 3° C., Initial): 99.65%; chemical degradation on storage [1, 8]: no significant chemical degradation; PXRD ([2]; storage at 5 ± 3° C., 1 months): Stable; PXRD ([2]; storage at 5 ± 3° C., 2 months): Stable; PXRD ([2]; storage at 5 ± 3° C., 3 months): Stable; PXRD ([2]; storage at 5 ± 3° C., 15 days): Stable; PXRD ([2]; storage at 5 ± 3° C., Initial): Amorphous; change in PXRD pattern on storage [2, 8]: no change in PXRD pattern"
"Cc1ccc(NC(=O)C2(c3ccc4c(c3)OC(F)(F)O4)CC2)nc1-c1cccc(C(=O)O)c1 [Lumacaftor acetic acid solvate, 3-(6-(1-(2,2-difluorobenzo[d][1,3]dioxol-5-yl)cyclopropanecarboxamido)-3-methylpyridin-2-yl)benzoic acid]",99.92,99.92,99.89,99.92,99.84,Stable,Stable,Stable,Stable,Crystalline,99.93,99.93,99.93,99.89,99.92,99.92,99.84,neither the lumacaftor ethyl acetate solvate nor the lumacaftor acetic acid solvate display any significant chemical degradation,Stable,Stable,"PXRD [2, 11]: Stable; PXRD [2, 12]: Stable; PXRD [2, 13]: Stable; PXRD [2, 14]: Stable; PXRD [2, 15]: Crystalline; change in PXRD pattern on storage [2, 16]: neither the lumacaftor ethyl acetate solvate nor the lumacaftor acetic acid solvate display any significant chemical degradation or any change in PXRD pattern"
"Cc1ccc(NC(=O)C2(c3ccc4c(c3)OC(F)(F)O4)CC2)nc1-c1cccc(C(=O)O)c1 [Lumacaftor ethyl acetate solvate, 3-(6-(1-(2,2-difluorobenzo[d][1,3]dioxol-5-yl)cyclopropanecarboxamido)-3-methylpyridin-2-yl)benzoic acid]",99.93,99.95,99.92,99.95,99.97,Stable,Stable,Stable,Stable,Crystalline,99.95,99.94,99.95,99.95,99.95,99.95,99.97,neither the lumacaftor ethyl acetate solvate nor the lumacaftor acetic acid solvate display any significant chemical degradation,Stable,Stable,"PXRD [2, 11]: Stable; PXRD [2, 12]: Stable; PXRD [2, 13]: Stable; PXRD [2, 14]: Stable; PXRD [2, 15]: Crystalline; change in PXRD pattern on storage [2, 16]: neither the lumacaftor ethyl acetate solvate nor the lumacaftor acetic acid solvate display any significant chemical degradation or any change in PXRD pattern"
